In the OPERA property sets (Mansouri et al. 2018):

`CN(Cc1ccccc1)N=O` and `CN(Cc1cccc(Cl)c1)N=O` are within 0.2 log units of each other in logP: 1.55 for the first, 1.46 for the second.

`CN(Cc1cccc(C(F)(F)F)c1)N=O` and `Cc1cccc(CN(C)N=O)c1` are within 0.2 log units of each other in logP: 1.99 for the first, 1.96 for the second.

Compared with `CN(Cc1ccc(F)cc1)N=O`, `CN(Cc1ccc(Cl)cc1)N=O` is higher in logP: 1.67 for the first, 2.19 for the second.

Compared with `CN(Cc1cccc([N+](=O)[O-])c1)N=O`, `CN(Cc1ccc([N+](=O)[O-])cc1)N=O` is lower in logP: 1.17 for the first, 0.82 for the second.

Compared with `Cc1ccc(CN(C)N=O)cc1`, `COc1cccc(CN(C)N=O)c1` is lower in logP: 2.14 for the first, 1.6 for the second.
